Reference: PMC4117522, “Proteasome Inhibitors Alter Levels of Intracellular Peptides in HEK293T and SH-SY5Y Cells” (PLoS ONE, 2014)

How the values were obtained:
SH-SY5Y cells = conditions: cited from earlier work
[1] = test system: open gate mutant of the 20S core particle; assay: Chymotryptic-like activity of open gate mutant of yeast 20S (Suc-Leu-Leu-Val-Tyr-AMC); format: biochemical; conditions: in the absence of ATP
Method: (§1) Proteasome activity was quantified by measuring the kinetics of fluorescence release (380 nm excitation, 460 nm emission). Fluorescence was measured at an interval of 30 seconds for 30 minutes with 5 seconds of mixing prior to each cycle. Proteasomes were purified as described previously, [35].
(§2) After incubation for 15 minutes, enzyme activity was measured by monitoring the fluorescence kinetics for the next 30 minutes. […] Enzyme activity is expressed as percent control without inhibitor. Error bars show standard error of the mean; error bars smaller than symbol size are not visible.

[2] = test system: tripeptidyl peptidase 2 (TPP2); assay: Ala-Ala-Phe-AMC cleavage (TPP2 substrate) in HEK293T cell extracts; format: biochemical, human; conditions: HEK293T cell extract, up to 5 µM
Method: (§3) All enzyme assays described below were performed in the linear range of the assay, as determined from time-course studies. HEK293T cells were lysed by sonication in 50 mM TrisHCl buffer, pH 7.5, containing 40 mM KCl, 5 mM MgCl2, 0.5 mM ATP, and 1 mM DTT (Buffer 1).
(§4) To measure TPP2, the fluorescent substrate was Ala-Ala-Phe-AMC. Aminopeptidase (AP) assays were performed with Leu-AMC and Ala-AMC, which detect leucine aminopeptidase (LAP), puromycin-sensitive aminopeptidase (PSAP), and other enzymes. To measure the effect of aminopeptidase/proteasome inhibitors on cleavage of Ala-Ala-Phe-AMC and Leu-AMC, 1∶50 dilution of the cell extract was pre-incubated with the inhibitor and Buffer 1 for 30 min, followed by addition of 100 µM final concentration of the respective substrate. For Ala-AMC, the same dilution of the cell extract was pre-incubated with the inhibitor and 50 mM MOPS buffer, pH 7.5, containing 40 mM KCl, 5 mM MgCl2, 0.5 mM ATP, and 1 mM DTT (Buffer 2), followed by addition of 100 µM final concentration of the substrate. After incubation at 37°C for 1 hour, enzyme activity was quantified by fluorescence measurement of the substrate (380 nm excitation, 460 nm emission).
Enzyme activity was determined by fluorescence measurement of AMC and expressed as percentage enzyme activity relative to the control lacking inhibitor. […]

[3] = biological target: T1, 20S proteasome core particle (Saccharomyces cerevisiae, UniProt P23724+P30656); assay: Chymotryptic-like activity of purified yeast 20S core particle (Suc-Leu-Leu-Val-Tyr-AMC); format: biochemical
T1 construct: various proteasome forms purified from yeast; made in house; host or cells: yeast
Method: as §1, §2

HEK293T cells = conditions: HEK293T cells; cited from earlier work
26S proteasome = 26S proteasome (Saccharomyces cerevisiae, UniProt P23724+P30656); assay: Chymotryptic-like activity of purified yeast 26S proteasome (Suc-Leu-Leu-Val-Tyr-AMC); format: biochemical; conditions: in the presence of ATP
Method: as §1, §2

[4] = biological target: T2, Blm10-activated 20S core particle (Saccharomyces cerevisiae, UniProt P23724+P30656); assay: Chymotryptic-like activity of purified yeast Blm10-20S (Suc-Leu-Leu-Val-Tyr-AMC); format: biochemical; conditions: in the absence of ATP
T2 construct: various proteasome forms purified from yeast; made in house; host or cells: yeast
Method: as §1, §2

[5] = test system: HEK293T cell aminopeptidase activity (Leu-AMC cleavage); assay: Aminopeptidase assay with Leu-AMC in HEK293T cell extracts; format: biochemical, human; conditions: HEK293T cell extract, 10 µM inhibitor
Method: as §3, §4
(§5) Figure 7 Effect of aminopeptidase inhibitors on Ala-AMC and Leu-AMC cleavage. HEK 293T cell extract (panels A–D) or recombinant PSAP (panels E–F) were treated with increasing concentrations of bestatin or puromycin for 30 minutes followed by the addition of substrate and incubation for 1 hour. Enzyme activity was determined by fluorescence measurement of AMC and expressed as percentage enzyme activity relative to the control without inhibitor. (A) Bestatin inhibition of HEK293T cell extract assayed with Ala-AMC. (B) Bestatin inhibition of HEK293T cell extract assayed with Leu-AMC. (C) Puromycin inhibition of HEK293T cell extract assayed with Ala-AMC. (D) Puromycin inhibition of HEK293T cell extract assayed with Leu-AMC. (E) Puromycin inhibition of purified PSAP assayed with Ala-AMC. (F) Puromycin inhibition of purified PSAP assayed with Leu-AMC. Error bars show standard error of mean (n = 4), points without error bars had error ranges smaller than the symbol size. Statistical analysis was performed using Student’s t-test: *, p≤0.05; **, p≤0.01; ***, p≤0.001; ns, no significant difference (p>0.05) versus the control.
(§6) Figure 8 Effect of proteasome inhibitors on Ala-AMC and Leu-AMC cleavage. HEK 293T cell extract or recombinant PSAP was treated with 10 µM of each of the proteasome inhibitors for 1 hour in addition to a 30 min pre-incubation without the substrate. Enzyme activity was determined by fluorescence measurement of AMC and expressed as percentage enzyme activity relative to the control without inhibitor. Panels A and B represent the effect of proteasome inhibitors on cleavage of Ala-AMC and Leu-AMC respectively, in HEK293T cell extract. […] Error bars show standard error of mean (n = 4). Statistical analysis was performed using Student’s t-test: *, p≤0.05; **, p≤0.01; ***, p≤0.001; ns, no significant difference (p>0.05) versus the control.

[6] = biological target: T3, recombinant human puromycin-sensitive aminopeptidase (PSAP, rhNPEPPS) (Homo sapiens, UniProt P55786); assay: Cleavage of Leu-AMC and Ala-AMC by purified recombinant PSAP; format: biochemical; conditions: 10 µM inhibitor, Ala-AMC
T3 construct: purchased R&D Systems
Method: To measure the effect of inhibitors on cleavage of Leu-AMC and Ala-AMC by purified PSAP, recombinant human PSAP (rhNPEPPS, R&D Systems) was diluted 1∶2000 in Buffer 2 containing 0.1 mg/ml BSA. The enzyme was pre-incubated with the inhibitor and Buffers 1 or 2, followed by addition of 100 µM final concentration of Leu-AMC (to the mix containing Buffer 1) and Ala-AMC (to the mix containing Buffer 2). After incubation at 37°C for 1 hour, PSAP activity was quantified by fluorescence measurement of the substrate (380 nm excitation, 460 nm emission).
as §5, §6

[7] = test system: HEK293T cell aminopeptidase activity (Ala-AMC cleavage); assay: Aminopeptidase assay with Ala-AMC in HEK293T cell extracts; format: biochemical, human; conditions: HEK293T cell extract; for Enzyme activity (% control with no inhibitor): Ala-AMC
Method: as §3, §4, §5, §6

T3 sequence (P55786 whole entry): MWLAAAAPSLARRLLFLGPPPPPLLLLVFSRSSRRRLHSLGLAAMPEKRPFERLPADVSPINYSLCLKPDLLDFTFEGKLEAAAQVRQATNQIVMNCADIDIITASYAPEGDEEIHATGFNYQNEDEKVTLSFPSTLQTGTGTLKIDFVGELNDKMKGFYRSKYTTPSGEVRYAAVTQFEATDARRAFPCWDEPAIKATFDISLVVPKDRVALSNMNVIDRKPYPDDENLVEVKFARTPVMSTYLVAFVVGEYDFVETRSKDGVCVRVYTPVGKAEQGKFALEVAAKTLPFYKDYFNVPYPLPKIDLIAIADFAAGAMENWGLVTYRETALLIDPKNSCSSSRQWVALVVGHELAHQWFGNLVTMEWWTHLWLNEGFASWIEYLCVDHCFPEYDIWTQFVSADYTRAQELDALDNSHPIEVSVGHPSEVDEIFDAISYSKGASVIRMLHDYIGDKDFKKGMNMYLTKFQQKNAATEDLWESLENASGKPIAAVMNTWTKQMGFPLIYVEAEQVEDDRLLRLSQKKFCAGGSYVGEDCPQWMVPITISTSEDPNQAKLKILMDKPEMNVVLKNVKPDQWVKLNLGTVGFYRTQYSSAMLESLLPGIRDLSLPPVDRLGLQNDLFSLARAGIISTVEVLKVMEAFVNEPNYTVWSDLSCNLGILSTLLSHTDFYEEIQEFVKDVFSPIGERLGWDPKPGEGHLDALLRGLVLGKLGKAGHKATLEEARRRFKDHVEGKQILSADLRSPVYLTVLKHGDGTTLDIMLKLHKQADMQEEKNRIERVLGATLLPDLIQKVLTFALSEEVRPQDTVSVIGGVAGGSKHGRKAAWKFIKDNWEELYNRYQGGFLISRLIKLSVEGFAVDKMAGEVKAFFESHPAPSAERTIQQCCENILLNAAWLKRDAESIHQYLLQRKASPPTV

In the case of CC(C)C[C@H](NC(=O)[C@H](Cc1ccccc1)NC(=O)c1cnccn1)B(O)O [bortezomib], the “change in levels of intracellular peptides (peptidome)” value (SH-SY5Y cells) is listed as “increase in the levels of most intracellular peptides”, the “inhibition of chymotryptic-like activity, compared among 20S forms” value (from here on “inhibition … compared among 20S forms”) [1] is listed as “comparable potency” and the “inhibition of Ala-Ala-Phe-AMC cleavage” value [2] is listed as “did not show significant inhibition”. The “inhibition … compared among 20S forms” value ([3]; in the absence of ATP) was “comparable potency”, the “inhibition of chymotryptic-like activity, 20S compared with 26S” value ([3]; in the presence of ATP) was “comparable inhibition” and the “change in levels of intracellular peptides (peptidome)” value (HEK293T cells) was “increase in the levels of most intracellular peptides”. For the same compound, the “inhibition of chymotryptic-like activity, 26S compared with 20S” value (26S proteasome) was “comparable inhibition”, the “inhibition … compared among 20S forms” value [4] was “comparable potency” and the “effect on cleavage of Leu-AMC” value [5] was “partially inhibited”. The “effect on cleavage of Ala-AMC by purified PSAP” value [6] was “no significant effect”, the “effect on cleavage of Ala-AMC” value ([7]; 10 µM inhibitor) was “partially inhibited” and the “Enzyme activity (% control with no inhibitor)” value ([7]; bestatin 50 µM together with bortezomib 10 µM) was 14.8±0.6 % control with no inhibitor. The “Enzyme activity (% control with no inhibitor)” value ([7]; bestatin 50 µM together with bortezomib 50 µM) was 14.8±0.8 % control with no inhibitor.
